This is an account of results in patent US20110212218A1, “Method for modulating animal digestive tract microbiota and feed composition comprising bark extract” (UPM-KYMMENE CORPORATION, priority 2009, published 2011).

For this assay, the system named is ileal microbial metabolism. Nature of the assay: Broiler ileal simulation in vitro, SCFA production. Format: cell-based, broilers.

Like-named read-outs stand apart in the source and are kept apart here.

Regarding `C=C(C)[C@@H]1CC[C@]2(CO)CC[C@]3(C)[C@H](CC[C@@H]4[C@@]5(C)CC[C@H](O)C(C)(C)[C@@H]5CC[C@]43C)[C@@H]12` [fraction C, betulinol], the “total production of short chain fatty acids (SCFA)” value is “increased”.

On to `CC[C@@H](C(=O)O)[C@@H]1O[C@@H]([C@@H](C)[C@H](O)[C@H](C)C(=O)[C@H](CC)[C@H]2O[C@]3(C=C[C@@H](O)[C@]4(CC[C@@](C)([C@H]5CC[C@](O)(CC)[C@H](C)O5)O4)O3)[C@H](C)C[C@@H]2C)[C@@H](C)C[C@@H]1C` [Narasin], for which the “total production of short chain fatty acids (SCFA)” value (ileal simulation, 12 hours (FIG. 6)) was “decreased”.
